# According to patent US20230045112A1, “DISULFIRAM AND OTHER REDOX-RELATED COMPOSITIONS FOR BRAIN TUMORS” (Texas Tech University System, priority 2014, published 2023):
# What was measured:
# MGMT [1] = target: T1, MGMT (Homo sapiens, UniProt P16455); parameters: endogenous in cells; host or cells: DAOY; settings: cultured tumor cells; cited from earlier work
# T1 sequence (P16455 1-207): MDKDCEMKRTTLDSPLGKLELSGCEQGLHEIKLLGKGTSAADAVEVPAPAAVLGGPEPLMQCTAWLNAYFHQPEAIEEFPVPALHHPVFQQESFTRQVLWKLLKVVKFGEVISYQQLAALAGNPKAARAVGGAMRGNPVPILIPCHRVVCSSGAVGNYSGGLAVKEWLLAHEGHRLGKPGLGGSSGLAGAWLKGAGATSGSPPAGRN
# MGMT [2] = target: T1, MGMT; experiment: MGMT activity and protein (western blot) in drug-treated T98G and UW228 brain tumor cells; type: cell-based; parameters: endogenous in cells; host or cells: UW228, T98G; settings: UW228 cells
# Experimental: The DNA repair activity of MGMT was measured by the transfer of [3H]-labeled methyl groups from the O^6-position of guanine in the DNA substrate to the MGMT protein as described previously. The DNA substrate enriched in O6-methylguanine was prepared by reacting [3H]-methylnitrosourea (GE Healthcare, 60 Ci/mmol). Briefly, the cell pellets were washed with cold PBS, disrupted by sonication in the assay buffer (30 mM Tris-HCl pH 7.5, 0.5 mM DTT, 0.5 mM EDTA, 5% glycerol, and 20 μM spermidine) and centrifuged. The extracts (50-150 μg protein) were supplemented with the [3H]-DNA (10,000 cpm) and incubated at 37° C. The reactions were terminated by the addition of TCA, the DNA substrate was hydrolyzed at 80° C., and following filtration on glass fiber discs; the radioactivity present in protein precipitates was quantitated.
# After trypsinization, the cell pellets were washed with cold PBS, and subjected to sonication in 50 mM Tris-HCl (pH 8.0) containing 1% glycerol, 1 mM EDTA, 0.5 mM PMSF and 2 mM benzamidine and centrifuged. Equal protein amounts from different treatments were electrophoresed on 12% SDS-polyacrylamide gels. Proteins were electro-transferred to Immobilon-P membranes. The membranes were blocked with 5% non-fat dry milk in Trisbuffered saline (TBS; pH 8.0) containing 0.1% Tween 20 for 3 hours, and subsequently incubated with appropriate primary antibodies. Antigen-antibody complexes were visualized by enhanced chemiluminiscence (Pierce Company). Band intensities were quantified using a Bio-Rad Versa Doc Imaging system.
# Cells were trypsinized, washed and MGMT activity was determined in cell extracts (top panel). The same extracts were western blotted for MGMT protein. WB, western blot. […] Cells were exposed to CuDSF and analyzed for MGMT activity and protein as above. […] To delineate the appropriate time for alkylating drug treatments following MGMT inhibition, next, the time course of MGMT depletion by these three interventions was studied.
# At times indicated, MGMT activity and protein levels were assessed.
# MGMT performs a stoichiometric reaction to accomplish the DNA repair and is not recycled to its active form. Instead, the inactivated protein is degraded and fresh translation has to occur to restore the MGMT levels in cells. The rate and extent of this recovery is an important factor in the extent of damage introduced to the normal cell genomes such as the bone marrow stem cells. […] MGMT protein and activity levels were analyzed during the depletion and repletion (FIG. 3B).
structure (smiles),measurement,setting,value
"Nc1nc(OCc2ccccc2)c2nc[nH]c2n1 [BG, O^6-benzylguanine]",duration of suppression of DNA repair,MGMT [1],48 to 72 h
same,loss/inhibition of MGMT activity at 12 hours post-drug treatment,"MGMT [2]; 50 μM, 12 hours",100%
same,"recovery of MGMT activity, % of control levels",MGMT [2]; 48 hours post-drug in drug-free media after 50 μM for 12 hours,25 % of control levels
